Patent publication US20250084061A1, “SULFONYL FUNCTIONAL COMPOUND, METHODS AND USES THEREOF” (Hubei Biopesticide Engineering Research Centre, priority 2023, published 2025)
Where two headings read alike, the source gives them in different places.

Tests used:
Magnaporthe oryzae = format: cell-based
Thanatephorus cucumeris = assay: Bactericidal (fungicidal) activity by microdilution; format: cell-based
Pythium aphanidermatum = assay: as above; format: cell-based
[1] = system: Corynespora leaf spot of tomato; assay: as above; format: cell-based
Aphiscraccivora = assay: Insecticidal activity, dipping method; format: in vivo
Protocol: (§1) The insecticidal activity of sulfonyl functional compounds in the above embodiments were tested for agricultural biological functions, and the targets of insecticidal activity were Heliothis armigera, Plutella xylostella and Aphiscraccivora.
(§2) The insecticidal activity of sulfonyl functional compounds against Aphiscraccivora was tested by the method of dipping. Mother liquors were prepared by the sulfonyl functional compounds provided in the above embodiments dissolved in ethanol, respectively. 500 mg/L, 250 mg/L or 125 mg/L test solution could be prepared by diluting the different mother liquors with a liquor that contained 0.1 mL/L of emulgator (Tween-80). Every test solution was tested twice (Rep1 and Rep2). A blank control was set up, and the activity results were compared with the blank control. The mortality rate of 0˜30%, 30˜50%, 50-70%, 70˜90%, or 90˜100% could be orderly set as 0, 3, 5, 7, or 9.

Heliothis armigera = assay: Insecticidal activity, artificial feed surface coating method; format: in vivo; details: Helicoverpa armigera, read-out: Insecticidal activity (mortality rate grade) Heliothis armigera
Protocol: as §1
(§3) Using Heliothis armigera and Plutella xylostella as target, the insecticidal activities of sulfonyl functional compounds were tested by conventional artificial feed surface coating method. 300 microliters of artificial feed and 20 microliters of test solution were added to each well of the 24-well cell culture plate. The test solution was used in different concentrations and repeated twice (Rep1 and Rep2). The concentrations of the test solution were 500 mg/L, 250 mg/L and 125 mg/L, respectively.
as §2

Plutella xylostella = assay: as above; format: in vivo; details: Plutella xylostella, read-out: Insecticidal activity (mortality rate grade) Plutella xylostella
Protocol: as §1, §3, §2

Alternaria kikuchiana = assay: Bactericidal (fungicidal) activity by microdilution; format: cell-based
[2] = system: Fusarium oxysporum f. sp. Niveum; assay: as above; format: cell-based
Septoria nodorum Berk. = assay: as above; format: cell-based
[3] = system: Colletotrichum gloeobosporioids; assay: as above; format: cell-based
Rhizoctonia solani = assay: as above; format: cell-based
Botrytis cinerea = assay: as above; format: cell-based
Fusarium culmorum = assay: as above; format: cell-based
Leptosphaeria biglobosa = assay: as above; format: cell-based
[4] = system: Verticillium dahliae.kieb.; assay: as above; format: cell-based

## COC(=O)Nc1nc2ccccc2n1C/C=C/S(=O)(=O)O [III-2]
Magnaporthe oryzae; 12.5 mg/L
  Fungicidal activity (antibacterial rate grade) Magnaporthe oryzae: 9 (The antibacterial rate of 90˜100% could be set as 9 if the target has totally no growth)
Magnaporthe oryzae; 25 mg/L
  Fungicidal activity (antibacterial rate grade) Magnaporthe oryzae: 9 (The antibacterial rate of 90˜100% could be set as 9 if the target has totally no growth)
Magnaporthe oryzae; 50 mg/L
  Fungicidal activity (antibacterial rate grade) Magnaporthe oryzae: 9 (The antibacterial rate of 90˜100% could be set as 9 if the target has totally no growth)
Magnaporthe oryzae; 100 mg/L
  Fungicidal activity (antibacterial rate grade) Magnaporthe oryzae: 9 (The antibacterial rate of 90˜100% could be set as 9 if the target has totally no growth)
Thanatephorus cucumeris; 12.5 mg/L
  Fungicidal activity (antibacterial rate grade) Thanatephorus cucumeris: 9 (The antibacterial rate of 90˜100% could be set as 9 if the target has totally no growth)
Thanatephorus cucumeris; 25 mg/L
  Fungicidal activity (antibacterial rate grade) Thanatephorus cucumeris: 9 (The antibacterial rate of 90˜100% could be set as 9 if the target has totally no growth)
Thanatephorus cucumeris; 50 mg/L
  Fungicidal activity (antibacterial rate grade) Thanatephorus cucumeris: 9 (The antibacterial rate of 90˜100% could be set as 9 if the target has totally no growth)
Thanatephorus cucumeris; 100 mg/L
  Fungicidal activity (antibacterial rate grade) Thanatephorus cucumeris: 9 (The antibacterial rate of 90˜100% could be set as 9 if the target has totally no growth)
Pythium aphanidermatum; 12.5 mg/L
  Fungicidal activity (antibacterial rate grade) Pythium aphanidematum: 3 (The antibacterial rate of 0˜30% could be set as 3 if the growth of the target is normal and consistent with that of the blank control)
Pythium aphanidermatum; 25 mg/L
  Fungicidal activity (antibacterial rate grade) Pythium aphanidematum: 3 (The antibacterial rate of 0˜30% could be set as 3 if the growth of the target is normal and consistent with that of the blank control)
Pythium aphanidermatum; 50 mg/L
  Fungicidal activity (antibacterial rate grade) Pythium aphanidematum: 3 (The antibacterial rate of 0˜30% could be set as 3 if the growth of the target is normal and consistent with that of the blank control)
Pythium aphanidermatum; 100 mg/L
  Fungicidal activity (antibacterial rate grade) Pythium aphanidematum: 3 (The antibacterial rate of 0˜30% could be set as 3 if the growth of the target is normal and consistent with that of the blank control)
[1]; 12.5 mg/L
  Fungicidal activity (antibacterial rate grade) Corynespora leaf spot of tomato: 3 (The antibacterial rate of 0˜30% could be set as 3 if the growth of the target is normal and consistent with that of the blank control)
[1]; 25 mg/L
  Fungicidal activity (antibacterial rate grade) Corynespora leaf spot of tomato: 3 (The antibacterial rate of 0˜30% could be set as 3 if the growth of the target is normal and consistent with that of the blank control)
[1]; 50 mg/L
  Fungicidal activity (antibacterial rate grade) Corynespora leaf spot of tomato: 7 (The antibacterial rate of 70˜90% could be set as 7 if the target has small amounts of growth)
[1]; 100 mg/L
  Fungicidal activity (antibacterial rate grade) Corynespora leaf spot of tomato: 7 (The antibacterial rate of 70˜90% could be set as 7 if the target has small amounts of growth)
Aphiscraccivora; 125 mg/L test solution
  Insecticidal activity (mortality rate grade) Aphiscraccivora: 0 (mortality rate of 0˜30%)
Aphiscraccivora; 250 mg/L test solution
  Insecticidal activity (mortality rate grade) Aphiscraccivora: 0 (mortality rate of 0˜30%)
Aphiscraccivora; 500 mg/L test solution
  Insecticidal activity (mortality rate grade) Aphiscraccivora: 0 (mortality rate of 0˜30%)
Heliothis armigera; 125 mg/L test solution
  mortality at 125 µg/mL: 0 to 30%
Heliothis armigera; 250 mg/L test solution
  mortality at 250 µg/mL: 0 to 30%
Heliothis armigera; 500 mg/L test solution
  mortality at 500 µg/mL: 0 to 30%
Plutella xylostella; 125 mg/L test solution
  mortality at 125 µg/mL: 0 to 30%
Plutella xylostella; 250 mg/L test solution
  mortality at 250 µg/mL: 0 to 30%
Plutella xylostella; 500 mg/L test solution
  mortality at 500 µg/mL: 0 to 30%
Alternaria kikuchiana; 12.5 mg/L
  Fungicidal activity (antibacterial rate grade) Alternaria kikuchiana: 3 (The antibacterial rate of 0˜30% could be set as 3 if the growth of the target is normal and consistent with that of the blank control)
Alternaria kikuchiana; 25 mg/L
  Fungicidal activity (antibacterial rate grade) Alternaria kikuchiana: 3 (The antibacterial rate of 0˜30% could be set as 3 if the growth of the target is normal and consistent with that of the blank control)
Alternaria kikuchiana; 50 mg/L
  Fungicidal activity (antibacterial rate grade) Alternaria kikuchiana: 3 (The antibacterial rate of 0˜30% could be set as 3 if the growth of the target is normal and consistent with that of the blank control)
Alternaria kikuchiana; 100 mg/L
  Fungicidal activity (antibacterial rate grade) Alternaria kikuchiana: 3 (The antibacterial rate of 0˜30% could be set as 3 if the growth of the target is normal and consistent with that of the blank control)
[2]; 12.5 mg/L
  Fungicidal activity (antibacterial rate grade) Fusarium oxysporum f. sp. Niveum: 9 (The antibacterial rate of 90˜100% could be set as 9 if the target has totally no growth)
[2]; 25 mg/L
  Fungicidal activity (antibacterial rate grade) Fusarium oxysporum f. sp. Niveum: 9 (The antibacterial rate of 90˜100% could be set as 9 if the target has totally no growth)
[2]; 50 mg/L
  Fungicidal activity (antibacterial rate grade) Fusarium oxysporum f. sp. Niveum: 9 (The antibacterial rate of 90˜100% could be set as 9 if the target has totally no growth)
[2]; 100 mg/L
  Fungicidal activity (antibacterial rate grade) Fusarium oxysporum f. sp. Niveum: 9 (The antibacterial rate of 90˜100% could be set as 9 if the target has totally no growth)
Septoria nodorum Berk.; 12.5 mg/L
  Fungicidal activity (antibacterial rate grade) Septoria nodorum Berk.: 9 (The antibacterial rate of 90˜100% could be set as 9 if the target has totally no growth)
Septoria nodorum Berk.; 25 mg/L
  Fungicidal activity (antibacterial rate grade) Septoria nodorum Berk.: 9 (The antibacterial rate of 90˜100% could be set as 9 if the target has totally no growth)
Septoria nodorum Berk.; 50 mg/L
  Fungicidal activity (antibacterial rate grade) Septoria nodorum Berk.: 9 (The antibacterial rate of 90˜100% could be set as 9 if the target has totally no growth)
Septoria nodorum Berk.; 100 mg/L
  Fungicidal activity (antibacterial rate grade) Septoria nodorum Berk.: 9 (The antibacterial rate of 90˜100% could be set as 9 if the target has totally no growth)
[3]; 12.5 mg/L
  Fungicidal activity (antibacterial rate grade) Colletotrichum gloeobosporioids: 9 (The antibacterial rate of 90˜100% could be set as 9 if the target has totally no growth)
[3]; 25 mg/L
  Fungicidal activity (antibacterial rate grade) Colletotrichum gloeobosporioids: 9 (The antibacterial rate of 90˜100% could be set as 9 if the target has totally no growth)
[3]; 50 mg/L
  Fungicidal activity (antibacterial rate grade) Colletotrichum gloeobosporioids: 9 (The antibacterial rate of 90˜100% could be set as 9 if the target has totally no growth)
[3]; 100 mg/L
  Fungicidal activity (antibacterial rate grade) Colletotrichum gloeobosporioids: 9 (The antibacterial rate of 90˜100% could be set as 9 if the target has totally no growth)
Rhizoctonia solani; 12.5 mg/L
  Fungicidal activity (antibacterial rate grade) Rhizoctonia solani: 3 (The antibacterial rate of 0˜30% could be set as 3 if the growth of the target is normal and consistent with that of the blank control)
Rhizoctonia solani; 25 mg/L
  Fungicidal activity (antibacterial rate grade) Rhizoctonia solani: 3 (The antibacterial rate of 0˜30% could be set as 3 if the growth of the target is normal and consistent with that of the blank control)
Rhizoctonia solani; 50 mg/L
  Fungicidal activity (antibacterial rate grade) Rhizoctonia solani: 3 (The antibacterial rate of 0˜30% could be set as 3 if the growth of the target is normal and consistent with that of the blank control)
Rhizoctonia solani; 100 mg/L
  Fungicidal activity (antibacterial rate grade) Rhizoctonia solani: 3 (The antibacterial rate of 0˜30% could be set as 3 if the growth of the target is normal and consistent with that of the blank control)
Botrytis cinerea; 12.5 mg/L
  Fungicidal activity (antibacterial rate grade) Botrytis cinerea: 3 (The antibacterial rate of 0˜30% could be set as 3 if the growth of the target is normal and consistent with that of the blank control)
Botrytis cinerea; 25 mg/L
  Fungicidal activity (antibacterial rate grade) Botrytis cinerea: 3 (The antibacterial rate of 0˜30% could be set as 3 if the growth of the target is normal and consistent with that of the blank control)
Botrytis cinerea; 50 mg/L
  Fungicidal activity (antibacterial rate grade) Botrytis cinerea: 3 (The antibacterial rate of 0˜30% could be set as 3 if the growth of the target is normal and consistent with that of the blank control)
Botrytis cinerea; 100 mg/L
  Fungicidal activity (antibacterial rate grade) Botrytis cinerea: 3 (The antibacterial rate of 0˜30% could be set as 3 if the growth of the target is normal and consistent with that of the blank control)
Fusarium culmorum; 12.5 mg/L
  Fungicidal activity (antibacterial rate grade) Fusarium culmorum: 7 (The antibacterial rate of 70˜90% could be set as 7 if the target has small amounts of growth)
Fusarium culmorum; 25 mg/L
  Fungicidal activity (antibacterial rate grade) Fusarium culmorum: 9 (The antibacterial rate of 90˜100% could be set as 9 if the target has totally no growth)
Fusarium culmorum; 50 mg/L
  Fungicidal activity (antibacterial rate grade) Fusarium culmorum: 9 (The antibacterial rate of 90˜100% could be set as 9 if the target has totally no growth)
Fusarium culmorum; 100 mg/L
  Fungicidal activity (antibacterial rate grade) Fusarium culmorum: 9 (The antibacterial rate of 90˜100% could be set as 9 if the target has totally no growth)
Leptosphaeria biglobosa; 12.5 mg/L
  Fungicidal activity (antibacterial rate grade) Leptosphaeria biglobosa: 9 (The antibacterial rate of 90˜100% could be set as 9 if the target has totally no growth)
Leptosphaeria biglobosa; 25 mg/L
  Fungicidal activity (antibacterial rate grade) Leptosphaeria biglobosa: 9 (The antibacterial rate of 90˜100% could be set as 9 if the target has totally no growth)
Leptosphaeria biglobosa; 50 mg/L
  Fungicidal activity (antibacterial rate grade) Leptosphaeria biglobosa: 9 (The antibacterial rate of 90˜100% could be set as 9 if the target has totally no growth)
Leptosphaeria biglobosa; 100 mg/L
  Fungicidal activity (antibacterial rate grade) Leptosphaeria biglobosa: 9 (The antibacterial rate of 90˜100% could be set as 9 if the target has totally no growth)
[4]; 12.5 mg/L
  Fungicidal activity (antibacterial rate grade) Verticillium dahliae. kieb.: 9 (The antibacterial rate of 90˜100% could be set as 9 if the target has totally no growth)
[4]; 25 mg/L
  Fungicidal activity (antibacterial rate grade) Verticillium dahliae. kieb.: 9 (The antibacterial rate of 90˜100% could be set as 9 if the target has totally no growth)
[4]; 50 mg/L
  Fungicidal activity (antibacterial rate grade) Verticillium dahliae. kieb.: 9 (The antibacterial rate of 90˜100% could be set as 9 if the target has totally no growth)
[4]; 100 mg/L
  Fungicidal activity (antibacterial rate grade) Verticillium dahliae. kieb.: 9 (The antibacterial rate of 90˜100% could be set as 9 if the target has totally no growth)
